According to patent US5010102A, “Anti-ulcer 5-(2-substituted ethenyl)-3(2H)-furanones” (American Home Products Corp., priority 1990, dated 1991):

Tested on: gastric mucosal lesions produced by ethanol
Experiment: prevention of gastric mucosal lesions produced by ethanol in rats (cytoprotective/anti-ulcer, Robert et al.)
Type: in vivo
Conditions: Rattus norvegicus, oral, usually 1 hour before ethanol, male Sprague-Dawley rats; for inhibition in vivo at 10 mg/kg / inhibition in vivo at 25 mg/kg: read-out: percentage inhibition of lesion formation; for ED50: calculated from a series of dosage levels, read-out: ED50 (dose at which half the animals did not develop lesions significantly different from the control group)
Description: The rats were placed in individual cages and denied water 2 hours or more before testing. At a fixed time before administration of ethanol (usually 1 hour), the animals were orally administered either the test compound or its water-carboxymethylcellulose vehicle. Ethanol was then administered orally at a dose of 1 mL per animal. One hour after administration of the ethanol, the animals were sacrificed and their stomachs removed, cut along the greater curvature and flushed clean with tap water. Macroscopic lesions on the gastric mucosa were graded from 0-3 based upon the absence of lesions to the presence of lesions which approximate 6 millimeters in length. Comparison of the treated group with the control group permits expression of the results as percentage inhibition of lesion formation as a direct measure of cytoprotection. […] The results of these studies are given at the end of each example illustrating the preparation of the tested compound, supra, as the percent inhibition or ED50 where the latter value was determined.

Work on `CC1(C)OC(/C=C/c2ccoc2)=CC1=O` [Example 25, 5-[2-(3-Furanyl)ethenyl]-2,2-dimethyl-3(2H)-furanone] yielded an inhibition in vivo at 10 mg/kg of 35%.
For `CC1(c2ccc(F)cc2)OC(/C=C/c2ccccn2)=CC1=O` (stereo not drawn) [Example 32, 2-Methyl-2-(4-fluorophenyl)-5-[2-(2-pyridinyl)ethenyl]-3(2H)-furanone], the inhibition in vivo at 10 mg/kg was 92% and the ED50 was 3.5 mg/kg.
Compound `CC1(C)OC(/C=C/c2ccnc3ccccc23)=CC1=O` [Example 20, 5-[2-(4-Quinolinyl)ethenyl]-2,2-dimethyl-3(2H)-furanone] has an ED50 of 2.5 mg/kg.
With `CC1(C)OC(/C=C/c2ccc(Br)cc2)=CC1=O` [Example 5, (E)-2,2-Dimethyl-5-[2-(4-bromophenyl)ethenyl]-3(2H)-furanone] the inhibition in vivo at 25 mg/kg was 63%.
With `CC1(c2ccc(F)cc2)OC(/C=C/c2ccc(C#N)cc2)=CC1=O` (stereo not drawn) [Example 31, 4-[2-[2,3-Dihydro-2-(4-fluorophenyl)-2-methyl-3-oxo-5-furanyl]ethenyl]benzonitrile] the inhibition in vivo at 10 mg/kg was 1%.
`CC1(C)OC(/C=C/c2ccncc2)=CC1=O` [Example 18, 2,2-Dimethyl-5-[2-(4-pyridinyl)ethenyl]-3(2H)-furanone] was tested, and the ED50 was 4 mg/kg.
Work on `CC1(C)OC(/C=C/c2cccs2)=CC1=O` [Example 23, 2,2-Dimethyl-5-[2-(2-thienyl)ethenyl]-3(2H)-furanone] yielded an inhibition in vivo at 10 mg/kg of 1%.
`CC1(C)OC(/C=C/c2ccc(Cl)cc2)=CC1=O` [Example 6, 2,2-Dimethyl-5-[2-(4-chlorophenyl)ethenyl]-3(2H)-furanone] gave an ED50 of 10.3 mg/kg.
`CC1(c2ccccc2)OC(/C=C/c2cccnc2)=CC1=O` (stereo not drawn) [Example 26, 2-Phenyl-2-methyl-5-[2-(3-pyridinyl)ethenyl]-3(2H)-furanone] was tested, and the ED50 was 5 mg/kg.
With `CC1(C)OC(/C=C/c2ccc(C(F)(F)F)cc2)=CC1=O` [Example 11, 2,2-Dimethyl-5-[2-[4-(trifluoromethyl)phenyl]ethenyl]-3(2H)-furanone] the inhibition in vivo at 25 mg/kg was 30%.
`CC1(C)OC(/C=C/c2ccsc2)=CC1=O` [Example 22, 2,2-Dimethyl-5-[2-(3-thienyl)ethenyl]-3(2H)-furanone] showed an ED50 of 4 mg/kg.
`CC1(c2ccccc2)OC(/C=C/c2ccc(C#N)cc2)=CC1=O` (stereo not drawn) [Example 29, 4-[2-[2,3-Dihydro-2-methyl-3-oxo-2-phenyl-5-furanyl]ethenyl]benzonitrile] showed an inhibition in vivo at 10 mg/kg of 4%.
`CC1(C)OC(/C=C/c2ccc(F)c(F)c2)=CC1=O` [Example 4, 5-[2-(3,4-Difluorophenyl)ethenyl]-2,2-dimethyl-3(2H)-furanone] was tested, and the inhibition in vivo at 25 mg/kg was 47%.
`CC1(c2ccccc2)OC(/C=C/c2ccccn2)=CC1=O` (stereo not drawn) [Example 28, 2-Methyl-2-phenyl-5-[2-(2-pyridinyl)ethenyl]-3(2H)-furanone] was tested, and the ED50 was 6 mg/kg.
For `CC1(c2ccc(F)cc2)OC(/C=C/c2ccsc2)=CC1=O` (stereo not drawn) [Example 33, 2-(4-Fluorophenyl)-2-methyl-5-[2-(3-thienyl)ethenyl]-3(2H)-furanone], the inhibition in vivo at 10 mg/kg was 22%.
With `Cn1cccc1/C=C/C1=CC(=O)C(C)(C)O1` [Example 16, 2,2-Dimethyl-5-[2-(1-methyl-2-pyrrolyl)ethenyl]-3(2H)-furanone] the inhibition in vivo at 10 mg/kg was 32%.
Compound `CC1(C)OC(/C=C/c2cc(Cl)cc(Cl)c2)=CC1=O` [Example 10, 5-[2-(3,5-Dichlorophenyl)ethenyl]-2,2-dimethyl-3(2H)-furanone] has an ED50 of 9 mg/kg.
Compound `CC1(C)OC(/C=C/c2ccc(F)cc2)=CC1=O` [Example 2, 2,2-Dimethyl-5-[2-(4-fluorophenyl)ethenyl]-3(2H)-furanone] has an ED50 of 11 mg/kg.
`CC1(C)OC(/C=C/c2ccc(C#N)cc2)=CC1=O` [Example 14, 4-[2-(2,3-Dihydro-2,2-dimethyl-3-oxo-5-furanyl)ethenyl]benzonitrile] showed an ED50 of 15 mg/kg.
Compound `CC1(C)OC(/C=C/c2ccc(F)cc2F)=CC1=O` [Example 3, 5-[2-(2,4-Difluorophenyl)ethenyl]-2,2-dimethyl-3(2H)-furanone] has an inhibition in vivo at 25 mg/kg of 52%.
`CC1(C)OC(/C=C/c2cc3ccccc3s2)=CC1=O` [Example 24, 5-[2-(Benzo[b]thien-2-yl)ethenyl]-2,2-dimethyl-3(2H)-furanone] gave an inhibition in vivo at 10 mg/kg of 17%.
Compound `CSc1ccc(/C=C/C2=CC(=O)C(C)(C)O2)cc1` [Example 12, (E)-2,2-Dimethyl-5-[2-[4-(methylthio)phenyl]ethenyl]-3(2H)-furanone] has an inhibition in vivo at 25 mg/kg of 5%.
For `CC1(c2ccccc2)OC(/C=C/c2ccncc2)=CC1=O` (stereo not drawn) [Example 27, 2-Methyl-2-phenyl-5-[2-(4-pyridinyl)ethenyl]-3(2H)-furanone], the inhibition in vivo at 10 mg/kg was 44%.
For `CC1(C)OC(/C=C/c2ccc(S(C)(=O)=O)cc2)=CC1=O` [Example 13, 2,2-Dimethyl-5-[2-[4-(methylsulfonyl)phenyl]ethenyl]-3(2H)-furanone], the inhibition in vivo at 25 mg/kg was 56% and the ED50 was 10.6 mg/kg.
`CC1(C)OC(/C=C/c2ccccn2)=CC1=O` [Example 17, 2,2-Dimethyl-5-[2-(2-pyridinyl)ethenyl]-3(2H)-furanone] showed an ED50 of 9 mg/kg.
`COc1cc(/C=C/C2=CC(=O)C(C)(C)O2)cc(OC)c1OC` [Example 1, 2,2-Dimethyl-5-[2-(3,4,5-trimethoxyphenyl)ethenyl]-3(2H)-furanone] was tested, and the inhibition in vivo at 25 mg/kg was 81%.
`CC1(C)OC(/C=C/c2cccnc2)=CC1=O` [Example 19, 2,2-Dimethyl-5-[2-(3-pyridinyl)ethenyl]-3(2H)-furanone] was tested, and the ED50 was 9.3 mg/kg.
Compound `CC1(C)OC(/C=C/c2cnccn2)=CC1=O` [Example 21, 2,2-Dimethyl-5-[2-(2-pyrazinyl)ethenyl]-3(2H)-furanone] has an inhibition in vivo at 10 mg/kg of 56%.
